Reference: patent US9150569B2, “Nitrogen-containing heterocyclic compound having inhibitory effect on production of kynurenine” (KYOWA HAKKO KIRIN CO., LTD., priority 2010, dated 2015)

What follows are compounds tested on production of kynurenine in KATO-III cells (assay: Inhibitory activity on the production of kynurenine (IFN-γ-treated KATO-III cells, kynurenine in the culture medium quantified by absorbance at 480 nm)). Details: test compound at 10 μmol/L, human gastric cancer cell line KATO-III, 96 hours, read-out: inhibition rate (production of kynurenine).
Type: cell-based
Description: This assay was performed by a modification of the method described in J. Biol. Chem., vol. 263, pp. 2041-2048 (1988). For culture of the human gastric cancer cell line KATO-III, RPMI 1640 (GIBCO, 11875) supplemented with 10 volt FBS (GIBCO, 10091-148, lot. 665285) was used. One μL of a test substance in a DMSO solution was diluted with 199 μL of the culture medium and placed in wells of a 384-well plate (10 μL/well). Next, IFN-γ (Sigma, 1-3265) was added to the culture medium to a concentration of 31.25 ng/mL, and KATO-III cells were suspended at 50,000 cells/mL in the culture medium. Forty μL of the suspension was added to each well (2,000 cells/well) and incubated under a 5% CO2 atmosphere at 37° C. for 96 hours. The final concentration of DMSO was limited to 0.1 volt or less so that DMSO itself may not affect the kynurenine concentration measured by this assay. After the incubation, 10 μL of a 30 w/vt aqueous trichloroacetic acid solution was added to each well, and incubation was performed at 65° C. for 30 minutes. The plate was centrifuged at 2,500×g for 5 minutes and 15μL of the supernatant in each well was transferred into another 384-well plate. To the transferred supernatant, 15 μL of a 2 w/vt solution of p-dimethylaminobenzaldehyde in acetic acid was added, incubation was performed at 65° C. for 20 minutes and the absorbance was measured at 480 nm.
Sample: the absorbance value of the well to which a DMSO solution containing a test substance was added and in which the cells were treated with IFN-γ.
Blank: the absorbance value of the well to which DMSO not containing a test substance was added and in which the cells were treated with IFN-γ.
Control: the absorbance value of the well to which DMSO not containing a test substance was added and in which the cells were not treated with IFN-γ.
In this assay, expression of IDO in KATO-III cells is induced by IFN-γ treatment and kynurenine in the culture medium is quantified. The kynurenine concentration in a culture medium is known to increase in proportion to the enzymatic activity of intracellular IDO (for example, J. Biol. Chem., vol. 263, pp. 2041-2048 ([…])). […] The production of kynurenine is known to be inhibited by IDO inhibitors (for example, J. Clin. Invest., vol. 117, No. 5, pp. 1147-1154 […]), and thus it is speculated that Compounds (I) also have an inhibitory effect on IDO.

Compound	inhibition at 10 µM
CCCS(=O)(=O)Nc1nc2ccccc2nc1OC(c1cccnc1)C(C)(C)C (centres unmarked) [Compound 3, N-(3-(2,2-dimethyl-1-(pyridin-3-yl)propoxy)quinoxalin-2-yl) propane-1-sulfonamide]	≥ 80%
CCCS(=O)(=O)Nc1nc2ccccc2nc1OC(c1ccc[n+]([O-])c1)C(C)(C)C (centres unmarked) [Compound 4, 3-(2,2-dimethyl-1-(3-(propylsulfonamido)quinoxalin-2-yloxy)propyl)pyridine 1-oxide]	≥ 80%
CCCS(=O)(=O)Nc1nc2ccccc2nc1OC(c1ccc[n+]([O-])c1)C1CC1 (centres unmarked) [Compound 6, 3-(cyclopropyl(3-(propylsulfonamido)quinoxalin-2-yloxy)methyl)pyridine 1-oxide]	≥ 80%
CCCS(=O)(=O)Nc1nc2ccccc2nc1OC(c1cccnc1)C(C)(C)F (centres unmarked) [Compound 7, N-(3-(2-fluoro-2-methyl-1-(pyridin-3-yl)propoxy)quinoxalin-2-yl)propane-1-sulfonamide]	≥ 80%
CCCS(=O)(=O)Nc1nc2ccccc2nc1OC(c1ccc[n+]([O-])c1)C(C)(C)F (centres unmarked) [Compound 8, 3-(2-fluoro-2-methyl-1-(3-(propylsulfonamido)quinoxalin-2-yloxy)propyl)pyridine 1-oxide]	≥ 80%
CCCCC(Oc1nc2ccccc2nc1NS(=O)(=O)CCC)c1cccnc1 (centres unmarked) [Compound 11, N-(3-(1-(pyridin-3-yl)pentyloxy)quinoxalin-2-yl)propane-1-sulfonamide]	≥ 80%
CCCCC(Oc1nc2ccccc2nc1NS(=O)(=O)CCC)c1ccc[n+]([O-])c1 (centres unmarked) [Compound 12, 3-(1-(3-(propylsulfonamido)quinoxalin-2-yloxy)pentyl)pyridine 1-oxide]	≥ 80%
CCCS(=O)(=O)Nc1nc2ccccc2nc1OC(c1cccnc1)C1(C)CC1 (centres unmarked) [Compound 13, N-(3-((1-methylcyclopropyl)(pyridin-3-yl)methoxy)quinoxalin-2-yl)propane-1-sulfonamide]	≥ 80%
CCCS(=O)(=O)Nc1nc2ccccc2nc1OC(c1ccc[n+]([O-])c1)C1(C)CC1 (centres unmarked) [Compound 14, 3-((1-methylcyclopropyl)(3-(propylsulfonamido)quinoxalin-2-yloxy)methyl)pyridine 1-oxide]	≥ 80%
CCCS(=O)(=O)Nc1nc2ccccc2nc1OC(CC)c1cccnc1 (centres unmarked) [Compound 15, N-(3-(1-(pyridin-3-yl)propoxy)quinoxalin-2-yl)propane-1-sulfonamide]	≥ 80%
CCCS(=O)(=O)Nc1nc2ccccc2nc1OC(CC)c1ccc[n+]([O-])c1 (centres unmarked) [Compound 16, 3-(1-(3-(propylsulfonamido)quinoxalin-2-yloxy)propyl)pyridine 1-oxide]	≥ 80%
CCCS(=O)(=O)Nc1nc2ccccc2nc1OC(c1cccnc1)C(F)F (centres unmarked) [Compound 17, N-(3-(2,2-difluoro-1-(pyridin-3-yl)ethoxy)quinoxalin-2-yl) propane-1-sulfonamide]	≥ 80%
CCCS(=O)(=O)Nc1nc2ccccc2nc1OC(C)c1cccnc1 (centres unmarked) [Compound 19, N-(3-(1-(pyridin-3-yl)ethoxy)quinoxalin-2-yl)propane-1-sulfonamide]	≥ 80%
CCCC(Oc1nc2ccccc2nc1NS(=O)(=O)CCC)c1cccnc1 (centres unmarked) [Compound 21, N-(3-(1-(pyridin-3-yl)butoxy)quinoxalin-2-yl)propane-1-sulfonamide]	≥ 80%
CCCC(Oc1nc2ccccc2nc1NS(=O)(=O)CCC)c1ccc[n+]([O-])c1 (centres unmarked) [Compound 22, 3-(1-(3-(propylsulfonamido)quinoxalin-2-yloxy)butyl)pyridine 1-oxide]	≥ 80%
CCCS(=O)(=O)Nc1nc2ccccc2nc1OC(c1ccccc1)c1cccnc1 (centres unmarked) [Compound 23, N-(3-(phenyl(pyridin-3-yl)methoxy)quinoxalin-2-yl)propane-1-sulfonamide]	≥ 80%

Compound	inhibition at 10 µM
CCCS(=O)(=O)Nc1nc2ccccc2nc1OC(c1ccccc1)c1ccc[n+]([O-])c1 (centres unmarked) [Compound 24, 3-(phenyl(3-(propylsulfonamido)quinoxalin-2-yloxy)methyl)pyridine 1-oxide]	≥ 80%
CCCS(=O)(=O)Nc1nc2ccccc2nc1OC(c1ccc(S(C)(=O)=O)cc1)C(F)(F)F (centres unmarked) [Compound 25, N-(3-(2,2,2-trifluoro-1-(4-(methylsulfonyl)phenyl)ethoxy)quinoxalin-2-yl)propane-1-sulfonamide]	≥ 80%
CCCS(=O)(=O)Nc1nc2ccccc2nc1OC(c1ccc(C#N)nc1)C(F)(F)F (centres unmarked) [Compound 26, N-(3-(1-(6-cyanopyridin-3-yl)-2,2,2-trifluoroethoxy)quinoxalin-2-yl)propane-1-sulfonamide]	≥ 80%
CCCS(=O)(=O)Nc1nc2ccccc2nc1OC(c1ccc2nccn2c1)C(F)(F)F (centres unmarked) [Compound 27, N-(3-(2,2,2-trifluoro-1-(imidazo[1,2-a]pyridin-6-yl)ethoxy)quinoxalin-2-yl)propane-1-sulfonamide]	≥ 80%
CCCCS(=O)(=O)Nc1nc2ccccc2nc1OC(c1ccc2nccn2c1)C(F)(F)F (centres unmarked) [Compound 28, N-(3-(2,2,2-trifluoro-1-(imidazo[1,2-a]pyridin-6-yl)ethoxy)quinoxalin-2-yl)butane-1-sulfonamide]	≥ 80%
CC(C)CS(=O)(=O)Nc1nc2ccccc2nc1OC(c1ccc2nccn2c1)C(F)(F)F (centres unmarked) [Compound 29, 2-methyl-N-(3-(2,2,2-trifluoro-1-(imidazo[1,2-a]pyridin-6-yl)ethoxy)quinoxalin-2-yl)propane-1-sulfonamide]	≥ 80%
O=S(=O)(CC1CC1)Nc1nc2ccccc2nc1OC(c1ccc2nccn2c1)C(F)(F)F (centres unmarked) [Compound 30, 1-cyclopropyl-N-(3-(2,2,2-trifluoro-1-(imidazo[1,2-a]pyridin-6-yl)ethoxy)quinoxalin-2-yl)methanesulfonamide]	≥ 80%
CCCS(=O)(=O)Nc1nc2ccccc2nc1OC(c1ccc(CO)nc1)C(F)(F)F (centres unmarked) [Compound 31, N-(3-(2,2,2-trifluoro-1-(6-(hydroxymethyl)pyridin-3-yl)ethoxy)quinoxalin-2-yl)propane-1-sulfonamide]	≥ 80%
CCCS(=O)(=O)Nc1nc2ccccc2nc1OC(c1ccc(-c2cnn(C)c2)nc1)C(F)(F)F (centres unmarked) [Compound 32, N-(3-(2,2,2-trifluoro-1-(6-(1-methyl-1H-pyrazol-4-yl)pyridin-3-yl)ethoxy)quinoxalin-2-yl)propane-1-sulfonamide]	≥ 80%
CCCCS(=O)(=O)Nc1nc2ccccc2nc1OC(c1ccc(-c2cnn(C)c2)nc1)C(F)(F)F (centres unmarked) [Compound 33, N-(3-(2,2,2-trifluoro-1-(6-(1-methyl-1H-pyrazol-4-yl)pyridin-3-yl)ethoxy)quinoxalin-2-yl)butane-1-sulfonamide]	≥ 80%
CCCCS(=O)(=O)Nc1nc2ccccc2nc1OC(c1ccc(S(C)(=O)=O)nc1)C(F)(F)F (centres unmarked) [Compound 40, N-(3-(2,2,2-trifluoro-1-(6-(methylsulfonyl)pyridin-3-yl)ethoxy)quinoxalin-2-yl)butane-1-sulfonamide]	≥ 80%
CCCCS(=O)(=O)Nc1nc2ccccc2nc1OC(c1ccc([S+](C)[O-])nc1)C(F)(F)F (centres unmarked) [Compound 41, N-(3-(2,2,2-trifluoro-1-(6-(methylsulfinyl)pyridin-3-yl)ethoxy)quinoxalin-2-yl)butane-1-sulfonamide]	≥ 80%
CCCS(=O)(=O)Nc1nc2ccccc2nc1OC(c1ccncc1)C(F)(F)F (centres unmarked) [Compound 42, N-(3-(2,2,2-trifluoro-1-(pyridin-4-yl)ethoxy)quinoxalin-2-yl)propane-1-sulfonamide]	≥ 80%
CCCS(=O)(=O)Nc1nc2ccccc2nc1OC(c1cc[n+]([O-])cc1)C(F)(F)F (centres unmarked) [Compound 43, 4-(2,2,2-trifluoro-1-(3-(propylsulfonamido)quinoxalin-2-yloxy)ethyl)pyridine 1-oxide]	≥ 80%
CCCS(=O)(=O)Nc1nc2ccccc2nc1OC(c1ccnc(C#N)c1)C(F)(F)F (centres unmarked) [Compound 44, N-(3-(1-(2-cyanopyridin-4-yl)-2,2,2-trifluoroethoxy)quinoxalin-2-yl)propane-1-sulfonamide]	≥ 80%
CCCS(=O)(=O)Nc1nc2ccccc2nc1OC(c1ccnc(N)c1)C(F)(F)F (centres unmarked) [Compound 45, N-(3-(1-(2-aminopyridin-4-yl)-2,2,2-trifluoroethoxy)quinoxalin-2-yl)propane-1-sulfonamide]	≥ 80%
